{"source": "paper PMC4363092", "about": "(Journal of medicinal chemistry, 2014)", "key": {"TNAP": {"target": "T1, TNAP (Homo sapiens, UniProt P05186)", "T1 sequence (P05186 18-502 limits assumed)": "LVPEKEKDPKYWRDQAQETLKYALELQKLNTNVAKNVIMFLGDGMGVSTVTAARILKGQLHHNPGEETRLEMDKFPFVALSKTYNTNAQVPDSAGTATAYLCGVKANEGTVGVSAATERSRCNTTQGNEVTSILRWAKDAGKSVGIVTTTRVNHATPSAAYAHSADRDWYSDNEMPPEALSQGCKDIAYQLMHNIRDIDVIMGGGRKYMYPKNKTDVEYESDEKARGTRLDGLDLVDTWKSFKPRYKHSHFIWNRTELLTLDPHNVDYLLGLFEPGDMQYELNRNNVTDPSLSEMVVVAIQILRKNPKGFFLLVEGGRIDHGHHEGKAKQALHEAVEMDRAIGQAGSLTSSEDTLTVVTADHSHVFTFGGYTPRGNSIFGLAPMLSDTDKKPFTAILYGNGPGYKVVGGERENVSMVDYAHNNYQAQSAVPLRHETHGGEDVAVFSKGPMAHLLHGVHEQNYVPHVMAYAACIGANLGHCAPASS", "experiment": "TNAP stability assay: hydrolysis by TNAP", "format": "in vitro ADME", "details": "1 h, pH 9, 100 μM (data not shown)"}, "P2Y1 receptor": {"target": "P2Y1 receptor (Homo sapiens, UniProt P47900)", "sequence (P47900 whole entry)": "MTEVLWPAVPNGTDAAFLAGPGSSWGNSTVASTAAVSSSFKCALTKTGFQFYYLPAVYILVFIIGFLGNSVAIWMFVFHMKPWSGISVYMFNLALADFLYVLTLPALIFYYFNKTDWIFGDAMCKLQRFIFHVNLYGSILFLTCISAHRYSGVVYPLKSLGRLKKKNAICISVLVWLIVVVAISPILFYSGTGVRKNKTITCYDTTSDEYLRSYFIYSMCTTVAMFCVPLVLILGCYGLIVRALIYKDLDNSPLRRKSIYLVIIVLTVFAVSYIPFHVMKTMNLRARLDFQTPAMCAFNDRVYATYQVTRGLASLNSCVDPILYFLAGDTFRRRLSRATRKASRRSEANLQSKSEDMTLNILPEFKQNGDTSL", "experiment": "[Ca2+]i elevation in 1321N1 astrocytoma cells expressing GFP-P2Y1 receptor", "format": "cell-based", "details": "EC50 of the nucleotide in relation to the EC50 of ATP"}}}
{"molecule": "Nc1ncnc2c1ncn2[C@@H]1O[C@H](COP(=O)(O)OP(=O)(O)OP(=O)(O)O)[C@@H](O)[C@H]1O", "note": "[ATP, reference compound]", "values": [{"measurement": "hydrolysis by TNAP", "setting": "TNAP", "result": 100, "unit": "%"}, {"measurement": "increase in efficacy vs ATP, P2Y1", "setting": "P2Y1 receptor", "result": 1}]}
